# In US10835500B2, “Medicament for accelerated wound healing” (Symrise AG, priority 2014, dated 2020):
# Legend:
# Assay type in all cases: cell-based, human
# primary keratinocytes = test: Morphology and propidium iodide staining after 5-day stimulation, primary keratinocytes; conditions: 5-day incubation with 500 μM
# Description: (§1) In order to obtain initial data on possible physiological effects caused by the activation of OR2AT4, HaCaT cells and primary keratinocytes were stimulated for five days with Sandalore®. […] A lethal effect of the odorant can therefore be ruled out (FIG. 16a).
# (§2) Effect of Sandalore® long-term stimulation on morphology, growth, and migration processes in keratinocytes. A) Phase contrast image and PI stains of HaCaT cells and primary keratinocytes after stimulation with Sandalore® (500 μM) or 0.1% DMSO (control) for five days. On positive PI staining, the cell nuclei are stained red. Scale: 100 μm. B) Evaluation of the proliferation assay carried out with the CyQuant Cell Proliferation Kit on HaCaT cells after 5-day stimulation with 500 μM of Sandalore® or 0.1% DMSO (control). For the RNA interference experiments, the cells were transfected with siRNA or scRNA on the day before Sandalore® stimulation. Shown is the mean cell count including standard error relative to untreated cells. Mann-Whitney U test; n=3 experiments. *: p<0.05; **: p<0.01. S: Sandalore. C) Agarose assay for determination of migration of HaCaT cells. Top: Transmitted light images of HaCaT cells that have migrated in the direction of Sandalore® (500 μM) or 0.1% DMSO. […] The longest path traversed by the cells and the overgrown area were measured and compared to the control (0.1% DMSO). […]
# HaCaT cells [1] = test: Morphology and propidium iodide staining after 5-day stimulation, HaCaT cells; conditions: 5-day incubation with 500 μM
# Description: as §1, §2
# IL-8 = test: ELISA of secreted IL-8 in supernatant of HaCaT cells; conditions: 24-hour stimulation, 500 μM
# Description: (§3) In order to investigate interleukin secretion, quantitative real-time PCR was first carried out. For this purpose, RNA from HaCaT cells was used that had previously been stimulated for 6 or 24 hours with Sandalore®. Detection was carried out with specific primers of various interleukins (IL-1α, IL-1β, IL-6, IL-8) and tumor necrosis factor (TNF▪). […] In order to corroborate the results, an ELISA assay was carried out, in which the secreted interleukins in the supernatant of the cells can be detected by means of an immunological reaction. By means of the assay used, secretion of the interleukins (IL-1α, IL-1β, IL-2, IL-4, IL-6, IL-8, IL-10, IL-12, and IL-17α), TNFα, γ-interferon (IFNγ), and granulocyte macrophage colony-stimulating factor (GMCSF) was investigated.
# (§4) Investigation of interleukin secretion and phosphorylation of Akt protein kinase after Sandalore® stimulation. A) Investigation of the regulation of interleukins in HaCaT cells by means of qRT-PCR after stimulation with Sandalore® (500 μM) for 6 h and 24 h. 0.1% DMSO was used as a control. GAPDH was used as a reference gene, and the relative expression between untreated and stimulated cells was determined. Mean values including standard error. n=3 experiments. […] The measured optical density of the treated cells at 450 nm was expressed relative to the background. […]
# [2] = system: cAMP content of HaCaT cells; test: cAMP assay (cAMP-Glo) in HaCaT cells
# Description: In order to identify the calcium channel through which calcium ions flow from the outside into the cytosol of the skin cells, the CNG channel blocker L-cis-diltiazem was used. […] An additional cAMP assay was conducted in order to verify the data of pharmacological characterization by means of the calcium imaging technique. For this purpose, HaCaT cells with various Sandalore® concentrations were stimulated, and cAMP content was determined.
# Pharmacological characterization of Sandalore®-induced signal cascade in human keratinocytes. A)-D). Shown are representative calcium imaging traces of primary keratinocytes in the presence of a blocker (blue). The horizontal bars correspond to the application times. 100 μM of ATP was used at the end of each measurement as a positive control stimulus. A) Measurement with calcium-free extracellular solution (+10 mM EGTA). B) Measurement with the adenylyl cyclase blocker SQ-22536 (100 μM). C) Use of the phospholipase-C blocker U-73122 (10 μM). 100 μM of histamine was taken as a positive control. D) Measurement with the CNG channel blocker L-cis-diltiazem (150 μM). E) Overview of pharmacological measurement of HaCaT cells and primary keratinocytes (Kera). […] Significance was determined between HaCaT cells stimulated with Sandalore® and stimulated with an equivalent volume of DMSO (0.2%). […]
# protein kinase Akt = test: Western Blot, phosphorylation of protein kinase Akt in HaCaT cells
# Description: In addition to the phosphorylated kinases already detected, the phosphorylation of protein kinase Akt was investigated. For this purpose, HaCaT cells were stimulated with Sandalore® for 0, 5, 15 and 30 min, and phosphorylation was investigated by means of Western Blot assays and special antibodies to the unphosphorylated or phosphorylated form of the Akt-protein.
# Investigation of interleukin secretion and phosphorylation of Akt protein kinase after Sandalore® stimulation. A) Investigation of the regulation of interleukins in HaCaT cells by means of qRT-PCR after stimulation with Sandalore® (500 μM) for 6 h and 24 h. 0.1% DMSO was used as a control. GAPDH was used as a reference gene, and the relative expression between untreated and stimulated cells was determined. Mean values including standard error. n=3 experiments. B) ELISA assay for the detection of interleukins in the supernatant of HaCaT cells stimulated for 24 h with Sandalore® (500 μM). 0.1% DMSO was used as a control. The measured optical density of the treated cells at 450 nm was expressed relative to the background. Supernatants of three independent stimulations were used. Mean values including standard error. Mann-Whitney U test. *: p<0.05. C) Western Blot for investigating phosphorylation of Akt protein kinase by HaCaT cells stimulated for 0, 5, 15, and 30 min with Sandalore® (500 μM). […]
# [3] = system: IL-6, IL-8, tumor necrosis factor; test: Quantitative real-time PCR of the other interleukins in HaCaT cells; conditions: 6 or 24 hours, 500 μM
# Description: as §3, §4
# IL-1α = test: ELISA of secreted IL-1α in supernatant of HaCaT cells; conditions: 24-hour stimulation, 500 μM
# Description: as §3, §4
# HaCaT cells [4] = test: Agarose migration assay with HaCaT cells; conditions: 500 μM versus 0.1% DMSO, five days
# Description: For this reason, an agarose migration assay was conducted in order to determine whether the increased cell growth is accompanied by increased chemotactic behavior.
# Effect of Sandalore® long-term stimulation on morphology, growth, and migration processes in keratinocytes. A) Phase contrast image and PI stains of HaCaT cells and primary keratinocytes after stimulation with Sandalore® (500 μM) or 0.1% DMSO (control) for five days. On positive PI staining, the cell nuclei are stained red. Scale: 100 μm. B) Evaluation of the proliferation assay carried out with the CyQuant Cell Proliferation Kit on HaCaT cells after 5-day stimulation with 500 μM of Sandalore® or 0.1% DMSO (control). For the RNA interference experiments, the cells were transfected with siRNA or scRNA on the day before Sandalore® stimulation. Shown is the mean cell count including standard error relative to untreated cells. Mann-Whitney U test; n=3 experiments. *: p<0.05; **: p<0.01. S: Sandalore. C) Agarose assay for determination of migration of HaCaT cells. Top: Transmitted light images of HaCaT cells that have migrated in the direction of Sandalore® (500 μM) or 0.1% DMSO. The growth margin of the cells was surrounded in black. Scale: 250 μm. Bottom: Evaluation of the proliferation assay. The longest path traversed by the cells and the overgrown area were measured and compared to the control (0.1% DMSO). Paired two-sided T test. […]
compound,measurement,setting,value
CC1=CCC(CCC(C)C(C)O)C1(C)C (stereo not shown) [Sandalore®],morphological changes or PI staining (lethal effect),primary keratinocytes,neither the HaCaT cells nor the keratinocytes showed morphological changes or PI staining
same,morphological changes or PI staining (lethal effect),HaCaT cells [1],neither the HaCaT cells nor the keratinocytes showed morphological changes or PI staining
same,secretion of IL-8 relative to the control (0.1% DMSO),IL-8,not significantly higher than the control
same,cAMP content,[2]; 10-minute stimulation with various concentrations,dose-dependent cAMP increase
same,EC50,"[2]; 10-minute stimulation, 1 μM-10,000 μM, read-out: EC50 value of cAMP increase",197 µM
same,time until Akt kinase was phosphorylated,"protein kinase Akt; 500 μM, 0, 5, 15 and 30 min",≤ 5 min
same,activation of the protein kinase Akt,protein kinase Akt; summary statement,activated
same,expression rate of the other interleukins,[3],no increase in the expression rate
same,secretion of IL-1α relative to the control (0.1% DMSO),IL-1α,significantly increased secretion
same,chemotactic migration of the HaCaT cells,HaCaT cells [4],significant chemotactic migration
